The source of these data is patent US8574563B2 (Bristol-Myers Squibb Company, priority 2006, dated 2013).

Each structure is given as a SMILES string.

This experiment relates to HCV 1b-377-neo replicon cells. The experiment is described as follows: HCV replicon assay, HCV 1b-377-neo replicon cells (1b FRET). As to conditions: Hepatitis C virus, HCV 1b-377-neo replicon cells; HCV 1b genotype; read-out: EC50 range against HCV 1b (Table 2, Range). The class given is cell-based, Hepatitis C virus genotype 1b. The method, boiled down: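 FRET-based replicon assay in HCV 1b-377-neo cells, including a comparison line carrying the NS5A Y2065H mutation that confers resistance to a reference compound.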
Background: A replicon is a self-replicating genome or part of one, used to study replication in cells.
For the compound `CCN(CC)[C@@H](C(=O)N1CCC[C@H]1c1ncc(-c2ccc(-c3ccc(-c4cnc([C@@H]5CCCN5C(=O)[C@H](Nc5ncccn5)C(C)C)[nH]4)cc3)cc2)[nH]1)c1ccccc1` [cj-11k, N-((1R)-1-(((2S)-2-(5-(4′-(2-((2S)-1-((2R)-2-(diethylamino)-2-phenylacetyl)-2-pyrrolidinyl)-1H-imidazol-5-yl)-4-biphenylyl)-1H-imidazol-2-yl)-1-pyrrolidinyl)carbonyl)-2-methylpropyl)-2-pyrimidinamine], the EC50 lay in the range of 0.001 to 0.999 nM.
The result for `CCN(CC)[C@@H](C(=O)N1CCC[C@H]1c1ncc(-c2ccc(-c3ccc(-c4cnc([C@@H]5CCCN5C(=O)[C@@H](NC(=O)OC)C(C)C)[nH]4)cc3)cc2)[nH]1)C(C)C` [Example M79, methyl ((1S)-1-(((2S)-2-(5-(4′-(2-((2S)-1-(N,N-diethyl-D-valyl)-2-pyrrolidinyl)-1H-imidazol-5-yl)-4-biphenylyl)-1H-imidazol-2-yl)-1-pyrrolidinyl)carbonyl)-2-methylpropyl)carbamate] reads 1 to 99 nM.
The result for `CCN(CC)[C@@H](C(=O)N1CCC[C@H]1c1ncc(-c2ccc(-c3ccc(-c4cnc([C@@H]5CCCN5C(=O)C[C@H](Cc5cccs5)NC(=O)OC)[nH]4)cc3)cc2)[nH]1)c1ccccc1` [cj-54, methyl ((1R)-3-((2S)-2-(5-(4′-(2-((2S)-1-((2R)-2-(diethylamino)-2-phenylacetyl)-2-pyrrolidinyl)-1H-imidazol-5-yl)-4-biphenylyl)-1H-imidazol-2-yl)-1-pyrrolidinyl)-3-oxo-1-(2-thienylmethyl)propyl)carbamate] reads 0.001 to 0.999 nM; that for `CCN(CC)[C@@H](C(=O)N1CCC[C@H]1c1ncc(-c2ccc(-c3ccc(-c4cnc([C@@H]5CCCN5C(=O)[C@@H]5COC(=O)N5)[nH]4)cc3)cc2)[nH]1)c1ccccc1` [Example M44, (4S)-4-(((2S)-2-(5-(4′-(2-((2S)-1-((2R)-2-(diethylamino)-2-phenylacetyl)-2-pyrrolidinyl)-1H-imidazol-5-yl)-4-biphenylyl)-1H-imidazol-2-yl)-1-pyrrolidinyl)carbonyl)-1,3-oxazolidin-2-one], 100 to 999 nM; that for `COC(=O)N[C@@H](C(=O)N1CCC[C@H]1c1nc(-c2cnc(-c3ccc(-c4cnc([C@@H]5CCCN5C(=O)[C@H](NC(=O)OC)c5ccccc5)[nH]4)c(F)c3)nc2)c[nH]1)c1ccccc1` [Example D69, methyl ((1R)-2-((2S)-2-(5-(2-(3-fluoro-4-(2-((2S)-1-((2R)-2-((methoxycarbonyl)amino)-2-phenylacetyl)-2-pyrrolidinyl)-1H-imidazol-5-yl)phenyl)-5-pyrimidinyl)-1H-imidazol-2-yl)-1-pyrrolidinyl)-2-oxo-1-phenylethyl)carbamate], 0.001 to 0.999 nM.
Take `COC(=O)N[C@@H](C(=O)N1CCC[C@H]1c1ncc(-c2ccc(-c3cc(F)c(-c4cnc([C@@H]5CCCN5C(=O)[C@H](NC(=O)OC)c5ccccc5)[nH]4)cc3F)cc2)[nH]1)c1ccccc1` [Example D53, dimethyl ((2,5-difluoro-4,4′-biphenyldiyl)bis(1H-imidazole-5,2-diyl(2S)-2,1-pyrrolidinediyl((1R)-2-oxo-1-phenyl-2,1-ethanediyl))) biscarbamate]: the EC50 fell in the range of 0.001 to 0.999 nM.
Then `CC(C)[C@@H](O)C(=O)N1CCC[C@H]1c1ncc(-c2ccc(-c3ccc(-c4cnc([C@@H]5CCCN5C(=O)[C@H](O)C(C)C)[nH]4)cc3)cc2)[nH]1` [Example 16, (2R,2′R)-1,1′-(4,4′-biphenyldiylbis(1H-imidazole-5,2-diyl(2S)-2,1-pyrrolidinediyl))bis(3-methyl-1-oxo-2-butanol)], with 1 to 99 nM; and `O=C([C@H]1CCN(Cc2ccccc2)C1)N1CCC[C@H]1c1ncc(-c2ccc(-c3ccc(-c4cnc([C@@H]5CCCN5C(=O)[C@@H](c5ccccc5)N5CCCCC5)[nH]4)cc3)cc2)[nH]1` [Example 107-18, 1-((1R)-2-((2S)-2-(5-(4′-(2-((2S)-1-(((3S)-1-benzyl-3-pyrrolidinyl)carbonyl)-2-pyrrolidinyl)-1H-imidazol-5-yl)-4-biphenylyl)-1H-imidazol-2-yl)-1-pyrrolidinyl)-2-oxo-1-phenylethyl) piperidine], with 0.001 to 0.999 nM; and `COC(=O)N[C@H](C(=O)N1CCC[C@H]1c1ncc(-c2ccc(-c3ccc(-c4[nH]c([C@@H]5CCCN5C(=O)[C@@H](NC(=O)OC)C(C)C)nc4C(F)(F)F)cc3)cc2)[nH]1)C(C)C` [Example J39, methyl ((1S)-1-(((2S)-2-(5-(4′-(2-((2S)-1-((2S)-2-((methoxycarbonyl)amino)-3-methylbutanoyl)-2-pyrrolidinyl)-1H-imidazol-5-yl)-4-biphenylyl)-4-(trifluoromethyl)-1H-imidazol-2-yl)-1-pyrrolidinyl)carbonyl)-2-methylpropyl)carbamate], with 0.001 to 0.999 nM.
In the case of `COC(=O)N[C@@H](C)C(=O)N1CCC[C@H]1c1ncc(-c2ccc(-c3ccc(-c4cnc([C@@H]5CCCN5C(=O)[C@@H](Nc5cccnc5)C(C)C)[nH]4)cc3)cc2)[nH]1` [cj-20a, methyl ((1S)-1-methyl-2-oxo-2-((2S)-2-(5-(4′-(2-((2S)-1-(N-3-pyridinyl-L-valyl)-2-pyrrolidinyl)-1H-imidazol-5-yl)-4-biphenylyl)-1H-imidazol-2-yl)-1-pyrrolidinyl)ethyl)carbamate], the EC50 fell in the range of 0.001 to 0.999 nM.
Then `COC(=O)N[C@@H](C(=O)N1CCC[C@H]1c1ncc(-c2ccc(-c3ccc(-c4cnc([C@@H]5CCCN5C(=O)OC)[nH]4)cc3)cc2)[nH]1)c1ccccc1` [Example 77, methyl (2S)-2-(5-(4′-(2-((2S)-1-((2R)-2-((methoxycarbonyl)amino)-2-phenylacetyl)-2-pyrrolidinyl)-1H-imidazol-5-yl)-4-biphenylyl)-1H-imidazol-2-yl)-1-pyrrolidinecarboxylate], with 0.001 to 0.999 nM.
The result for `CCC(CC)[C@H](NC(=O)OC)C(=O)N1CCC[C@H]1c1ncc(-c2ccc(-c3ccc(-c4cnc([C@@H]5CCCN5C(=O)[C@@H](NC(=O)OC)C(CC)CC)[nH]4)cc3)cc2)[nH]1` [OL-4, methyl ((1S)-2-ethyl-1-(((2S)-2-(4-(4′-(2-((2S)-1-((2S)-3-ethyl-2-((methoxycarbonyl)amino)pentanoyl)-2-pyrrolidinyl)-1H-imidazol-4-yl)-4-biphenylyl)-1H-imidazol-2-yl)-1-pyrrolidinyl)carbonyl)butyl)carbamate] reads 0.001 to 0.999 nM; that for `CN(C)C(C(=O)N1CCC[C@H]1c1ncc(-c2ccc(-c3ccc(-c4cnc([C@@H]5CCCN5C(=O)[C@@H](c5ccccc5)N(C)C)[nH]4)cc3)cc2)[nH]1)c1ccc(Cl)nc1` (stereo partly drawn) [Example 94-44, 1-(6-chloro-3-pyridinyl)-2-((2S)-2-(5-(4′-(2-((2S)-1-((2R)-2-(dimethylamino)-2-phenylacetyl)-2-pyrrolidinyl)-1H-imidazol-5-yl)-4-biphenylyl)-1H-imidazol-2-yl)-1-pyrrolidinyl)-N,N-dimethyl-2-oxoethanamine], 0.001 to 0.999 nM; that for `CN(C)[C@@H](C(=O)N1CCC[C@H]1c1ncc(-c2ccc(-c3ccc(-c4cnc([C@@H]5CCCN5C(=O)Cc5cn(C)cn5)[nH]4)cc3)cc2)[nH]1)c1ccccc1` [Example 88, (1R)-N,N-dimethyl-2-((2S)-2-(5-(4′-(2-((2S)-1-((1-methyl-1H-imidazol-4-yl)acetyl)-2-pyrrolidinyl)-1H-imidazol-5-yl)-4-biphenylyl)-1H-imidazol-2-yl)-1-pyrrolidinyl)-2-oxo-1-phenylethanamine], 0.001 to 0.999 nM.

Broadly, the EC50 is the concentration needed to bring the measured effect to its halfway point.
